According to US20230042729A1, “PEPTIDE CONSTRUCTS AND COMPOSITIONS” (DIET4LIFE APS, priority 2019, published 2023):
No end group written: not given here.

How the values were obtained:
murine intestinal cells = murine intestinal cells (Mus musculus, UniProt O88319); assay: Ca2+ flux / calcium response assay (cell signaling activity); format: cell-based
Description: Ca^2+ Flux Assay/Calcium Response Assay:
Elevation of intracellular calcium level was measured using the fluorescent calcium chelating dye Fluo-4 AM (ThermoFischer Scientific, Denmark). Briefly, cells were grown as a monolayer in 96-well tissue culture plates (Sarstedt, Germany) to near confluence in appropriate growth medium as described in the cell culture section.
All test compounds were dissolved in water, and then diluted in 1×HBSS containing 25 mM HEPES (pH 7.4), 1% BSA and 2% ink. […]

[1] = Stability of peptides ex vivo in rodent intestine; format: in vitro ADME, mouse or rat; settings: rodent intestine model of degradation
Description: 0,001 mg/ml of the indicated peptides were incubated with pieces of rodent intestine (mouse and rat intestine gave similar results) for up to 10 minutes at 37° C. Recovery of activity was tested with dose-response curves as indicated.
FIG. 9. Stability of peptides in rodent intestine. EC50 values for different peptides and different incubation times were calculated from FIG. 8 and recovered activity plotted as a function of time.
Peptides are degraded by proteases in the gastrointestinal tract. However the speed of this degradation depends on the sequence of the peptide. In order to measure stability of the […] peptide series and to compare with e.g. RRKPYIL, 10 or 50 mg (wet weight) of mouse or rat intestinal tissue (distal ileum) was equilibrated in V-bottom 24 well plates in 800 μl HBSS, 25 mM HEPES, pH 7.4 at 37° C. with shaking at 350 rpm. Identical amounts of different peptides (final concentration of 1 μg/ml) were added to the intestinal pieces and incubation continued. At various time points, 100 μl aliquots were removed and diluted into whey protein hydrolysate (final concentration of 10 mg/ml) to non-specifically compete protease activity. Peptide solutions were then diluted and tested for bioactivity (FIG. 8). Peptides incubated under same conditions but in absence of intestine served as controls (no degradation). […]

carboxypeptidases = assay: Stability studies of DC7-2: carboxypeptidases; format: in vitro ADME
[2] = Stability of peptides in intestine homogenate, remaining activity read in intestinal cells; format: in vitro ADME, mice; settings: octapeptides; % activity left after 30 min incubation in intestine homogenate at 37° C.
Description: Small intestines from 20 Swiss-Webster males were homogenized in 350 ml Dulbecco's phosphate-buffered saline (PBS) (pH 7.4) (ThermoFischer Scientific, Denmark) with a IKA® basic 18 Ultra-Turrax tissue homogenizer set a speed 5 followed by filtration using 100 μm nylon mesh filter. Protein concentration was 6 mg/ml using the bicinconinic acid assay (ThermoFischer Scientific, Denmark) and bovine serum albumin as standard. The intestine homogenate was diluted 10 times in HBSS containing 25 mM HEPES (pH 7.4), and further diluted 30×, 90×, 270×, 810× or 2430× before incubation with peptides. All solutions were prewarmed to 37° C. before mixing with peptide solutions.
Peptides were incubated at 10^−5 M with dilutions of small intestine homogenate at 37° C. for 90 minutes with shaking. Reactions were stopped by addition of 1 M phosphoric acid (final 0.4 M, pH˜1.2). Each peptide incubation mix was then neutralized with NaOH to pH 7.2-7.4 and immediately tested for activity in intestinal cells. Control for zero degradation, i.e. addition of 1 M phosphoric acid prior to addition of intestine homogenate, was included for each peptide. […]
(§1) The 20 hexapeptides with systematic N-terminal substitutions (X-KPYIL) (Schafer-N, Denmark) and NT (8-13) was incubated at 10^−6 M in either FBS for 10 minutes or with 270× diluted intestinal homogenate for 30 minutes at 37° C. with shaking. The degradation was stopped with 1 M phosphoric acid. Peptide solutions were neutralized with NaOH (pH 7.2-7.4), diluted and immediately tested for bioactivity using murine intestinal cells. Determination of EC50 for stimulation of cells allowed calculation of recovered peptide.

chymotrypsin = chymotrypsin (Homo sapiens, UniProt P17538); assay: Stability studies of DC7-2: chymotrypsin; format: in vitro ADME
[3] = Stability of peptides in serum, remaining activity read in intestinal cells; format: in vitro ADME, Bovine; settings: octapeptides; fraction of peptide activity left after 10 min of incubation in serum at 37° C. compared with undigested sample
Description: All peptides were incubated at 10^−5 M with Fetal Bovine Serum (FBS; final concentration of 66.7%) (Sigma Aldrich, Denmark) at 37° C. for 3 hours. The peptide degradation was terminated using 1 M phosphoric acid (final 0.4 M, pH˜1.2) and neutralized to pH 7.2-7.4 with NaOH before testing activity in intestinal cells. As for small intestine homogenates, a zero degradation control was included for each peptide.
DC7-2, NT, DKPYIL and NT-(8-13) (final concentration of 10^−6 M) were incubated either with FBS or with 270× diluted intestinal homogenate at 37° C. for various time points with shaking. Degradation was stopped with 1 M phosphoric acid and the samples were subsequently neutralized and immediately tested with intestinal cells as described above. Control for zero degradation was included for each peptide as above.
as §1

gastric pepsin = gastric pepsin (Homo sapiens, UniProt P0DJD8); assay: Stability studies of DC7-2: pepsin; format: in vitro ADME
trypsin = trypsin (Homo sapiens, UniProt P07477); assay: Stability studies of DC7-2: trypsin; format: in vitro ADME
carboxypeptidase = assay: Carboxypeptidase activity in pancreatin (Hippuryl-L-phenylalanine); format: biochemical, porcine; settings: 0.1 mg/ml pancreatin (FIG. 23D)
Description: FIG. 23. Enzymes in intestine homogenate and pancreatin.

[4] = target: T1, commercial carboxypeptidase inhibitor (CPI) from Potato tuber (UniProt P01075)
T1 sequence: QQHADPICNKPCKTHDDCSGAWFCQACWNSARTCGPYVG

[5] = target: T2, trypsin inhibitor, T9128 from soybean, P01070
T2 chain: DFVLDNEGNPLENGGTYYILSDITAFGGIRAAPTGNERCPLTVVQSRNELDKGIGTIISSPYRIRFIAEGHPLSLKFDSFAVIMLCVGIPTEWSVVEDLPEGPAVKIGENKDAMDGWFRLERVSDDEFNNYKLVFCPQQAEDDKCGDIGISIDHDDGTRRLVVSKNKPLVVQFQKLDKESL

[6] = target: T3, trypsin inhibitor T9253 from chicken egg white, P01005
T3 chain: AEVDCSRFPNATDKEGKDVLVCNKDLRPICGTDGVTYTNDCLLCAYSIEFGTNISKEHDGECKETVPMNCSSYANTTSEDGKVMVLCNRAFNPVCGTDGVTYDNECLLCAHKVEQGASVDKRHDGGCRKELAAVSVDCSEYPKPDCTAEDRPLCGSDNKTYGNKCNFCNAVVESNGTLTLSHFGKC

Chain of gastric pepsin (P0DJD8 63-388): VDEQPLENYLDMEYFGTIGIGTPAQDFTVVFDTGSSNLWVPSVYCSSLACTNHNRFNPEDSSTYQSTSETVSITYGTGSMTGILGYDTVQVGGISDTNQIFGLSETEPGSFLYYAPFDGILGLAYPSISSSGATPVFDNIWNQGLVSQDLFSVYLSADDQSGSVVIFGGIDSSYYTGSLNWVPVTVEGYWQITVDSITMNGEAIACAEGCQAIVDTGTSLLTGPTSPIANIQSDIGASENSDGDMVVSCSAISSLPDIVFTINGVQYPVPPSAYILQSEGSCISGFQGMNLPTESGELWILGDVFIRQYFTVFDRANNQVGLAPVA
Chain of murine intestinal cells (O88319 whole entry): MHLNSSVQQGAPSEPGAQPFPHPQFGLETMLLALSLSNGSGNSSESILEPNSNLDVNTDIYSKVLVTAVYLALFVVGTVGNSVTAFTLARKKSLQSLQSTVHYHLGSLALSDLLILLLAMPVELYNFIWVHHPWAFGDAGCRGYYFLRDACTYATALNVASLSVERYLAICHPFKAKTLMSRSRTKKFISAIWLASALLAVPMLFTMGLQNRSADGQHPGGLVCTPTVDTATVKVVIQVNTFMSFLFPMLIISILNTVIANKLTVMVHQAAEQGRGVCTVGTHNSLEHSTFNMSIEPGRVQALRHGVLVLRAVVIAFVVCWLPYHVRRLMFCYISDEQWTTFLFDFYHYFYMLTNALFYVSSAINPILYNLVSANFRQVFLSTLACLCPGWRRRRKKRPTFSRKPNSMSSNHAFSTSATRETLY
Chain of chymotrypsin (P17538 19-263): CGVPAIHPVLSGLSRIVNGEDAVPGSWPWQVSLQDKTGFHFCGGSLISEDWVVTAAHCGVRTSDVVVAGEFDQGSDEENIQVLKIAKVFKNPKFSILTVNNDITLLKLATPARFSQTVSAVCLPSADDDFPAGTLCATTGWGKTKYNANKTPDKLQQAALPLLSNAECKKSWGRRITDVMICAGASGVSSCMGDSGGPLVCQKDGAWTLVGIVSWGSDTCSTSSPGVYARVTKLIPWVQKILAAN

ASDKPYIL [Peptide 36036, A SDKPYIL]
EC50 (murine intestinal cells): 3.51 nM | stability compared with the active fragment of neurotensin [1]: 100-1000 times | sensitivity to carboxypeptidases (carboxypeptidases): sensitive | Stability in intestine (activity remaining) [2]: 6.0% | sensitivity to chymotrypsin (chymotrypsin): sensitive | Stability in serum (activity remaining) [3]: 0.0988 | degradation by gastric pepsin (gastric pepsin): resilient | sensitivity to trypsin (trypsin): sensitive

CPI: commercial carboxypeptidase inhibitor from Potato tuber (QQHADPICNKPCKTHDDCSGAWFCQACWNSARTCGPYVG)
carboxypeptidase activity (carboxypeptidase): efficiently suppressed

carboxypeptidase in porcine pancreatin
carboxypeptidase activity (Hippuryl-L-phenylalanine substrate, slope of kinetic absorbance) [4]: carboxypeptidase activity, which was efficiently suppressed by a commercial carboxypeptidase inhibitor (CPI) from Potato tuber

B1: trypsin in porcine pancreatin (protein)
chain: IVGGYTCAANSIPYQVSLNSGSHFCGGSLINSQWVVSAAHCYKSRIQVRLGEHNIDVLEGNEQFINAAKIITHPNFNGNTLDNDIMLIKLSSPATLNSRVATVSLPRSCAAAGTECLISGWGNTKSSGSSYPSLLQCLKAPVLSDSSCKSSYPGQITGNMICVGFLEGGKDSCQGDSGGPVVCNGQLQGIVSWGYGCAQKNKPGVYTKVCNYVNWIQQTIAAN
trypsin activity (conversion of L-BAPA, slope of kinetic absorbance) [5]: Intestinal and pancreatic trypsin activity was inhibited in a dose-dependent manner by two specific trypsin inhibitors from soybean and chicken egg white, respectively | trypsin activity (conversion of L-BAPA, slope of kinetic absorbance) [6]: Intestinal and pancreatic trypsin activity was inhibited in a dose-dependent manner by two specific trypsin inhibitors from soybean and chicken egg white, respectively
